Measurements reported in patent US20210045385A1, “PYRIDAZINONE-SUBSTITUTED KETOXIMES AS HERBICIDES” (FMC Corporation, priority 2018, published 2021).

Legend:
Assay type in all cases: in vivo
[1] = system: rice (Oryza sativa); experiment: Test D flooded paddy test, visual plant response rating; details: 250 g ai/ha, scale 0 to 100 (0 no effect, 100 complete control), 13 to 15 d
Procedure, shortened: (§1)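 Plants were grown to the 2-leaf stage, pots flooded to 3 cm above soil, and compound applied directly into the paddy water, with the depth held throughout. After 13 to 15 d in a greenhouse, response was rated visually against untreated controls on a 0–100 scale (0 no effect, 100 complete control).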

[2] = system: barnyardgrass (Echinochloa crus-galli); experiment: as above; details: 250 g ai/ha, scale 0 to 100 (0 no effect, 100 complete control), 13 to 15 d
Procedure, shortened: as §1

[3] = system: duck salad (Heteranthera limosa); experiment: as above; details: 250 g ai/ha, scale 0 to 100 (0 no effect, 100 complete control), 13 to 15 d
Procedure, shortened: as §1

[4] = system: sedge umbrella (small-flower umbrella sedge, Cyperus difformis); experiment: as above; details: 250 g ai/ha, scale 0 to 100 (0 no effect, 100 complete control), 13 to 15 d
Procedure, shortened: as §1

[5] = system: pigweed (Amaranthus retroflexus); experiment: Test C preemergence, visual plant response rating; details: Test C, 0 is no effect, 100 is complete control
Procedure, shortened: (§2)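 Compounds in a non-phytotoxic solvent with surfactant were applied as a directed soil spray preemergence or to 2–10 cm, one- to two-leaf plants postemergence, in loam–sand soil. After about 10 d in a greenhouse, injury was visually rated against untreated controls on a 0–100 scale (100 = complete control).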

[6] = system: foxtail, giant (giant foxtail, Setaria faberi); experiment: Test C preemergence, visual plant response rating; details: Test C, 0 is no effect, 100 is complete control
Procedure, shortened: as §2

[7] = system: Italian ryegrass (Lolium mutiflorum); experiment: Test C preemergence, visual plant response rating; details: Test C, 0 is no effect, 100 is complete control
Procedure, shortened: as §2

[8] = system: kochia (Bassia scoparia); experiment: Test C preemergence, visual plant response rating; details: Test C, 0 is no effect, 100 is complete control
Procedure, shortened: as §2

[9] = system: barnyardgrass (Echinochloa crus-galli); experiment: Test C preemergence, visual plant response rating; details: Test C, 0 is no effect, 100 is complete control
Procedure, shortened: as §2

[10] = system: pigweed (Amaranthus retroflexus); experiment: Test C postemergence, visual plant response rating
Procedure, shortened: as §2

[11] = system: corn (Zea mays); experiment: Test C postemergence, visual plant response rating
Procedure, shortened: as §2

[12] = system: foxtail, giant (giant foxtail, Setaria faberi); experiment: Test C postemergence, visual plant response rating
Procedure, shortened: as §2

[13] = system: ragweed (common ragweed, Ambrosia artemisiifolia); experiment: Test C postemergence, visual plant response rating
Procedure, shortened: as §2

[14] = system: Italian ryegrass (Lolium mutiflorum); experiment: Test C postemergence, visual plant response rating
Procedure, shortened: as §2

[15] = system: kochia (Bassia scoparia); experiment: Test C postemergence, visual plant response rating
Procedure, shortened: as §2

[16] = system: galium (catchweed bedstraw, Galium aparine); experiment: Test C postemergence, visual plant response rating
Procedure, shortened: as §2

[17] = system: blackgrass (Alopecurus myosuroides); experiment: Test C postemergence, visual plant response rating
Procedure, shortened: as §2

[18] = system: wheat (Triticum aestivum); experiment: Test C postemergence, visual plant response rating
Procedure, shortened: as §2

[19] = system: barnyardgrass (Echinochloa crus-galli); experiment: Test C postemergence, visual plant response rating
Procedure, shortened: as §2

[20] = Test C, postemergence, 125 g ai/ha

SMILES | Plant response rating, Rice (Flood) [1] | Plant response rating, Barnyardgrass (Flood) [2] | Plant response rating, Ducksalad (Flood) [3] | Plant response rating, Sedge, Umbrella (Flood) [4] | Pigweed plant response rating (0 to 100 scale) ([5]; 31 g ai/ha) | Pigweed plant response rating (0 to 100 scale) ([5]; 125 g ai/ha) | Foxtail, Giant plant response rating (0 to 100 scale) ([6]; 31 g ai/ha) | Foxtail, Giant plant response rating (0 to 100 scale) ([6]; 125 g ai/ha) | Ryegrass, Italian plant response rating (0 to 100 scale) ([7]; 31 g ai/ha) | Ryegrass, Italian plant response rating (0 to 100 scale) ([7]; 125 g ai/ha) | Kochia plant response rating (0 to 100 scale) ([8]; 31 g ai/ha) | Kochia plant response rating (0 to 100 scale) ([8]; 125 g ai/ha) | Barnyardgrass plant response rating (0 to 100 scale) ([9]; 31 g ai/ha) | Barnyardgrass plant response rating (0 to 100 scale) ([9]; 125 g ai/ha) | Pigweed plant response rating (0 to 100 scale) ([10]; Postemergence, 31 g ai/ha) | Pigweed plant response rating (0 to 100 scale) [10, 20] | Corn plant response rating (0 to 100 scale) ([11]; Postemergence, 31 g ai/ha) | Corn plant response rating (0 to 100 scale) [11, 20] | Foxtail, Giant plant response rating (0 to 100 scale) ([12]; Postemergence, 31 g ai/ha) | Foxtail, Giant plant response rating (0 to 100 scale) [12, 20] | other results
CCO/N=C(/c1c(O)c(Cl)nn(C)c1=O)c1cc(Br)cc2ccccc12 [Compound 236] | 0 | 35 | 70 | 85 | 10 | 70 | 80 | 100 | 0 | 20 | 0 | 40 | 90 | 90 | 20 | 60 | 20 | 30 | 60 | 90 | Ragweed plant response rating (0 to 100 scale) ([13]; Postemergence, 31 g ai/ha): 100; Ragweed plant response rating (0 to 100 scale) [13, 20]: 100; Ryegrass, Italian plant response rating (0 to 100 scale) ([14]; Postemergence, 31 g ai/ha): 0; Ryegrass, Italian plant response rating (0 to 100 scale) [14, 20]: 20; Kochia plant response rating (0 to 100 scale) ([15]; Postemergence, 31 g ai/ha): 30; Kochia plant response rating (0 to 100 scale) [15, 20]: 50; Galium plant response rating (0 to 100 scale) ([16]; Postemergence, 31 g ai/ha): 90; Galium plant response rating (0 to 100 scale) [16, 20]: 100; Blackgrass plant response rating (0 to 100 scale) ([17]; Postemergence, 31 g ai/ha): 0; Blackgrass plant response rating (0 to 100 scale) [17, 20]: 30; Wheat plant response rating (0 to 100 scale) ([18]; Postemergence, 31 g ai/ha): 0; Wheat plant response rating (0 to 100 scale) [18, 20]: 0; Barnyardgrass plant response rating (0 to 100 scale) ([19]; Postemergence, 31 g ai/ha): 70; Barnyardgrass plant response rating (0 to 100 scale) [19, 20]: 90
C#CCO/N=C(\c1c(O)c(Cl)nn(C)c1=O)c1ccc(F)c2ccccc12 [Compound 220] | 0 | 0 | 0 | 0 | 30 | 100 | 20 | 100 | 30 | 100 | 0 | 60 | 0 | 90 | 80 | 100 | 10 | 40 | 60 | 100 | Ragweed plant response rating (0 to 100 scale) ([13]; Postemergence, 31 g ai/ha): 60; Ragweed plant response rating (0 to 100 scale) [13, 20]: 100; Ryegrass, Italian plant response rating (0 to 100 scale) ([14]; Postemergence, 31 g ai/ha): 70; Ryegrass, Italian plant response rating (0 to 100 scale) [14, 20]: 100; Kochia plant response rating (0 to 100 scale) ([15]; Postemergence, 31 g ai/ha): 50; Kochia plant response rating (0 to 100 scale) [15, 20]: 80; Galium plant response rating (0 to 100 scale) ([16]; Postemergence, 31 g ai/ha): 70; Galium plant response rating (0 to 100 scale) [16, 20]: 100; Blackgrass plant response rating (0 to 100 scale) ([17]; Postemergence, 31 g ai/ha): 30; Blackgrass plant response rating (0 to 100 scale) [17, 20]: 80; Wheat plant response rating (0 to 100 scale) ([18]; Postemergence, 31 g ai/ha): 40; Wheat plant response rating (0 to 100 scale) [18, 20]: 90; Barnyardgrass plant response rating (0 to 100 scale) ([19]; Postemergence, 31 g ai/ha): 40; Barnyardgrass plant response rating (0 to 100 scale) [19, 20]: 80
